Laboratory results as given in patent US11167007B2, “FOXM1 modulators and uses thereof” (City of Hope, priority 2016, dated 2021).
Entries after “also recorded” stand apart in the source; their conditions may differ.

Columns and labels:
AR [1] = biological target: T1, AR (Homo sapiens, UniProt P10275); assay: FRET-based AR conformation change reporter (CFP-AR-YFP, CARY) in GT1-7 cells; type: cell-based, mouse; set-up: Full length AR with cyan fluorescent protein (CFP) or yellow fluorescent protein (YFP) fused to either end (CARY); expressed in transfected cells
T1 sequence (P10275 1-920): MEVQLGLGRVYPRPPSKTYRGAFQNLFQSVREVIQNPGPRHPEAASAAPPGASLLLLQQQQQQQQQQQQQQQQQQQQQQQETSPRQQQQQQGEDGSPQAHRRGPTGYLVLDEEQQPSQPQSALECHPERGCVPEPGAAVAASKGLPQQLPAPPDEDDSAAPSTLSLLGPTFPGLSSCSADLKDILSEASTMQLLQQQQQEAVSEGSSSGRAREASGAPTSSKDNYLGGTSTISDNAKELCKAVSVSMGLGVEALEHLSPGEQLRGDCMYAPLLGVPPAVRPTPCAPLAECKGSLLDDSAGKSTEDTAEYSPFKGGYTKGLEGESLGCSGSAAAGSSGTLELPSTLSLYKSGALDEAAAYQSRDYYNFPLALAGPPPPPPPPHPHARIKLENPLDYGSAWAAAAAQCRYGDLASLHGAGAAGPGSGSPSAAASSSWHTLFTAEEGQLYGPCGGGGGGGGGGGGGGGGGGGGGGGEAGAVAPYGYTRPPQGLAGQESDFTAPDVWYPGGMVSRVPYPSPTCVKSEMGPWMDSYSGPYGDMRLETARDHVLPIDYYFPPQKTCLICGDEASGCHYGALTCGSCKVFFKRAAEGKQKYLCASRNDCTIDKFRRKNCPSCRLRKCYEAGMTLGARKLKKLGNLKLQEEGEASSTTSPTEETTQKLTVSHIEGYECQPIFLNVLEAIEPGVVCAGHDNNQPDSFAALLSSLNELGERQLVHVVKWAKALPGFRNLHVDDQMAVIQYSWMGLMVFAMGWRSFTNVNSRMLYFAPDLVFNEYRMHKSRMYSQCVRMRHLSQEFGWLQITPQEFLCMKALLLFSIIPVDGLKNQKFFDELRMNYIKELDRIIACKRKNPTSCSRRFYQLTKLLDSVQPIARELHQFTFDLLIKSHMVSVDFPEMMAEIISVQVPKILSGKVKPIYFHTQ
Experimental: (§1) Creation of stable C-AR-Y reporter cell lines. Cell lines listed above were either transfected with a plasmid or a virus containing the CFP-AR-YFP construct preceding an IRES and hygromycin resistance gene and clonal stable cell lines selected. Qualification criteria for the transfected cell lines were described by Jones et al, ACS Chem Biol, 3(7):412-8 (2008).
(§2) Screen for AR-modulators. Screening was performed essentially as described by Jones et al, ACS Chem Biol, 3(7):412-8 (2008). Briefly, C-AR-Y reporter GTI-7 were transferred to 96 well plates and treated with library compounds for 24 hours. […] The compounds to be tested were from the NCI/DTP Open Chemical Repository's Approved Oncology Drugs Set II, Diversity Set II and Mechanistic Set. […] After 24 hours, medium was aspirated and FRET was measured as previously described using a monochromator-based fluorescence plate reader (M1000, Tecan, Inc.). Jones et al, ACS Chem Biol, 3(7):412-8 (2008). […]
(§3) In order to identify potential cell-type selective AR modulators, the FRET-based assay of AR conformation change was utilized. […] This produces an accurate and quantifiable read-out of AR activity. […] Candidate hits were then further evaluated by dose response. […] In addition to FRET, AR transcriptional activity was also assessed in several cell lines by transfecting cells with a luciferase reporter driven by the human PSA promoter. […]

AR [2] = biological target: T1, AR; assay: FRET-based AR conformation change reporter (CARY) in C2C12 muscle cells; type: cell-based, murine; set-up: Full length AR with cyan fluorescent protein (CFP) or yellow fluorescent protein (YFP) fused to either end (CARY); expressed in transfected cells; details: FRET or luciferase
Experimental: as §1, §2, §3

AR [3] = biological target: T1, AR; assay: Androgen-responsive luciferase reporter assay in ReNcell CX neuronal cells; type: cell-based; set-up: endogenous in cells; host or cells: ReNcell CX; details: FIG. 2B
Text: Luciferase Reporter Assay. Cells were transfected using Lipofectamine Plus (Invitrogen) with a normalization plasmid (pRL-SV40, Promega) and an androgen responsive plasmid (MMTV-luciferase or PSA-luciferase) as described in Jones et al, ACS Chem Biol, 3(7):412-8 (2008), and, where indicated, with an shRNA plasmid targeting FOXM1 (adapted for mouse FOXM1 sequence targeting) a scrambled control shRNA plasmid, or ARQ24 or ARQ65 plasmids. Christensen et al, PLoS One, 8(1):e54556 (2013). The following day, cells and drugs were distributed to 96-well plates. 24 hours later, luciferase activity was assessed by a dual luciferase assay kit (Promega) on the Tecan plate reader. Samples were run in quadruplicates and a Student's t test was performed to determine significance, where p<0.05 was considered significant.
The ability of thiostrepton to inhibit AR activity in additional neuronal cells, including ReNcell CX cells PC12 cells, and in rat L6 skeletal muscle cells was examined (FIG. 2B). Donato et al, BMC Neurosci, 8:36 (2007); Yaffe, Proc Natl Acad Sci USA, 61(2):477-83 (1968).

Structure (SMILES) | inhibition of DHT-induced AR conformation change (AR [1]; dose response, GT1-7 cells, FIG. 1B) | AR inhibitor (antagonist) activity in words (AR [1]; neuronal GT1-7 cells, FRET or luciferase) | AR inhibitor (antagonist) activity in words (AR [2]) | inhibition of AR activity (luciferase) (AR [3])
C=C(NC(=O)C(=C)NC(=O)c1csc(C2=N[C@@H]3c4csc(n4)[C@H]4NC(=O)c5csc(n5)[C@H]([C@](C)(O)[C@@H](C)O)NC(=O)[C@H]5CSC(=N5)/C(=C/C)NC(=O)[C@H]([C@@H](C)O)NC(=O)c5csc(n5)[C@]3(CC2)NC(=O)[C@H](C)NC(=O)C(=C)NC(=O)C(=C)NC(=O)[C@H](C(C)C)N[C@@H]2C=Cc3c([C@H](C)O)cc(nc3[C@H]2O)C(=O)O[C@@H]4C)n1)C(N)=O [NSC285116, siomycin A] | dose dependent inhibition | greatest potency; also recorded: demonstrated antagonist activity | little to no activity; also recorded: not C2C12 muscle cells | –
C=C(NC(=O)C(=C)NC(=O)c1csc(C2=N[C@@H]3c4csc(n4)[C@H]4NC(=O)c5csc(n5)[C@H]([C@](C)(O)[C@@H](C)O)NC(=O)[C@H]5CSC(=N5)/C(=C/C)NC(=O)[C@H]([C@@H](C)O)NC(=O)c5csc(n5)[C@]3(CC2)NC(=O)[C@H](C)NC(=O)C(=C)NC(=O)[C@H](C)NC(=O)[C@H]([C@@H](C)CC)N[C@@H]2C=Cc3c([C@H](C)O)cc(nc3[C@H]2O)C(=O)O[C@@H]4C)n1)C(N)=O [thiostrepton] | – | – | – | inhibited AR activity
